Results taken from patent US11951167B2, “Targeted liposomes” (GEORGETOWN UNIVERSITY, priority 2012, dated 2024).

Tests used:
topoisomerase I = target: T1, topoisomerase I (Homo sapiens, UniProt P11387); conditions: cited from earlier work
T1 sequence (P11387 1-765): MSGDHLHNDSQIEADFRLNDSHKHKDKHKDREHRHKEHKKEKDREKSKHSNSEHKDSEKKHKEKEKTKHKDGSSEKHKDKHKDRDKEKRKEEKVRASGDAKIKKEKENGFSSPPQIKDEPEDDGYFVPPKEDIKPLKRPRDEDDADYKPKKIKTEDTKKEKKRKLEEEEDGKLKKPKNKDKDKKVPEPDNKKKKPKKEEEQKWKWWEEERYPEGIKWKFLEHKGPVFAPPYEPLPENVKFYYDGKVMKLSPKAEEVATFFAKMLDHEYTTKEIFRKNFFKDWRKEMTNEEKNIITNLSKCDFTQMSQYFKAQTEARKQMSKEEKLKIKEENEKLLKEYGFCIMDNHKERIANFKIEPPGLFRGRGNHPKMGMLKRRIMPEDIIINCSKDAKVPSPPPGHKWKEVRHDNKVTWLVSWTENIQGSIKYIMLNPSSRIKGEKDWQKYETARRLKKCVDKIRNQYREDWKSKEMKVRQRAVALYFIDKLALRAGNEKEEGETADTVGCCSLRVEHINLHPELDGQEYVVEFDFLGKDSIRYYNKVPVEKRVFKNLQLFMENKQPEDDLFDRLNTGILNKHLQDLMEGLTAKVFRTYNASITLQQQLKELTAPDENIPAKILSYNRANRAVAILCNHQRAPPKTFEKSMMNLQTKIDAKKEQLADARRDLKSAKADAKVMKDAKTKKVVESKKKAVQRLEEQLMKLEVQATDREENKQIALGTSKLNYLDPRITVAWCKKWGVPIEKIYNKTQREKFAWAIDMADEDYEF

HT-29 xenograft tumors = test: Anti-tumor efficacy in subcutaneous colon xenografts; format: in vivo, athymic nude mice
Experimental: In our initial in vivo experiment, we assessed the anti-tumor efficacy of various molar ratios of liposome to IH. Tumors of human colon tumor cell line HT-29 were induced in female athymic nude mice (5-10 animals/group) by the subcutaneous injection of 3.12×10^5 cells/site/mouse suspended in Matrigel® collagen basement solution. When the tumors reached ˜100 mm^3 treatment was initiated. […] Groups of animals were also treated with Free IH, scL without IH, the nanocomplex without the targeting moiety (Lip-IH), as well as a group of untreated mice. The mice were IV injected twice weekly to a total of 15 injections. […] Thus, in the remainder of the studies the optimal ratio of 1:1 (Liposome:IH) was used in preparation of the scL-IH nanocomplex. […] Here also the mice received a total of 15 intravenous injections.

Hep G2 cells = test: XTT cell viability, IH formulations; format: cell-based, human
Experimental: (§1) After 24 hours, the media was replaced with serum-free medium, overlaid with 100 μL of increasing concentrations of either scL-IH nanocomplex, prepared as described above in Example 26, unliganded nanocomplex (L-IH), free IH or LipA only in serum-free medium. The cells were, incubated for 5 hours and then supplemented with FBS. […] The IC50 was interpolated from the graph of the log of drug concentration versus the fraction of surviving cells.

PANC-1 cells = test: XTT cell viability, IH formulations; format: cell-based, human
Experimental: as §1

HT-29 cells = test: XTT cell viability, IH formulations; format: cell-based; conditions: Homo sapiens, 24 h
Experimental: as §1

KMS-11 cells [1] = test: Cell viability by Trypan Blue counting, MEL formulations; format: cell-based; conditions: Homo sapiens, KMS-11, 48 h
Experimental: The size of the scL-MEL nanocomplex was 45 and 57 nm, respectively.
For these in vitro cell survival studies, the human multiple myeloma cell line KMS-11 was used. These are non-adherent cells and grow in suspension. 4×10^5 cells in 2.6 ml of serum free media were incubated in a sterile 50 ml centrifuge tube with 400 ul of the scL-MEL (at either ratio) or unencapsulated MEL for one hour. Following this incubation, the medium was supplemented with fetal bovine serum to a final concentration of 10% (0.3 ml/tube). After incubation for an additional 47 h, cell viability was determined by Trypan Blue counting of the cells. To accomplish this, one part trypan blue solution is mixed with 1 part cell suspension (1:1 dilution) in a 2 mL eppendorf tube (e.g. 200 μL trypan blue is mixed with 200 μL cell suspension). Using a hemacytometer and a microscope the number of viable cells (unstained) and dead cells (stained) are counted. The average number of cells per 0.1 mm^3 is calculated and the number of cells per mL determined. The percent of viable cells is calculated as follows: Viable Cells %=(Number of viable cells/Number of Cells)*100
This complex was subsequently lyophilized and the samples stored in a desiccator at 2-8° C. After one week of storage the lyophilized scL-Mel complex was reconstituted with endotoxin free water and used to transfect KMS-11 cells as described above. […]

KMS-11 cells [2] = test: Cell viability, MEL or scL-MEL combined with scL-p53; format: cell-based; conditions: Homo sapiens, scL-p53 DNA dose 0.2 ug/4×10^5 cells in the combination
Experimental: Cells (4×10^5 per tube) were transfected with different scL/MEL complexes containing increasing doses of MEL. The scL-p53 was prepared as previously described (U.S. Pat. No. 7,780,822). The DNA dose used for all transfections was 0.2 ug/4×10^5 cells. […] The IC20 was used to allow detection of an additive or synergistic effect of the two treatments. The KMS-11 cells were transfect with Free (unencapsulated) MEL alone, scL-MEL alone, or the combination of Free (unencapsulated) or scL encapsulated MEL plus scL-p53 (FIG. 37).

CCc1c2c(nc3ccc(O)cc13)-c1cc3c(c(=O)n1C2)COC(=O)[C@]3(O)CC [SN-38, 7-ethyl-10-hydroxy-camptothecin]
potency relative to parent compound irinotecan (topoisomerase I): One thousand-fold more potent

CCc1c2c(nc3ccc(OC(=O)N4CCC(N5CCCCC5)CC4)cc13)-c1cc3c(c(=O)n1C2)COC(=O)[C@]3(O)CC [IH, Irinotecan]
tumor growth (HT-29 xenograft tumors; first experiment, IH 10 mg/kg i.v. twice weekly, 15 injections, Liposome:IH 1:1 for the complex): minimal effect on tumor growth
tumor growth (HT-29 xenograft tumors; second experiment (fresh vs lyophilized), IH 10 mg/kg, Liposome:IH 1:1, 15 injections): only minimal effect
cell kill at the low doses tested (Hep G2 cells): no effect
cell kill at the low doses tested (PANC-1 cells): no effect
IC50 (HT-29 cells): > 10 µM

N[C@@H](Cc1ccc(N(CCCl)CCCl)cc1)C(=O)O [MEL, melphalan]
IC50 (KMS-11 cells [1]): 17.6 µM
IC50 (KMS-11 cells [2]): 10.9 µM
